The source of these data is patent US9580433B2 (Janssen Pharmaceutica NV, priority 2013, dated 2017).

Structures are written as SMILES.

One experiment concerns the target T1, BACE1 (Homo sapiens, UniProt P56817).
T1 construct: recombinant BACE1 protein in a final concentration of 0.04 g/ml
The experiment can be described thus: BACE1 biochemical FRET based assay. As to conditions: recombinant BACE1, 450 min, pH 5.0; read-out: BACE1 Biochemical FRET based assay pIC50 (converted).

Experiment [1] concerns Abeta 1-42 produced and secreted by SKNBE2 cells (BACE1). The experiment is described as follows: BACE1 cellular αLisa assay in SKNBE2 cells, Abeta 1-42. The class given is cell-based, human. Conditions: Homo sapiens, SKNBE2, 18 h, SKNBE2 cells expressing hAPP695, 18 hours incubation; read-out: Cellular αLisa assay in SKNBE2 cells Abeta 42 pIC50 (converted). As for the experimental part: (§1) BACE1 Cellular αLisa Assay in SKNBE2 Cells
(§2) In two αLisa assays the levels of Abeta total and Abeta 1-42 produced and secreted into the medium of human neuroblastoma SKNBE2 cells are quantified. The assay is based on the human neuroblastoma SKNBE2 expressing the wild type Amyloid Precursor Protein (hAPP695). The compounds are diluted and added to these cells, incubated for 18 hours and then measurements of Abeta 1-42 and Abeta total are taken. Abeta total and Abeta 1-42 are measured by sandwich αLisa. αLisa is a sandwich assay using biotinylated antibody AbN/25 attached to streptavidin coated beads and antibody Ab4G8 or cAb42/26 conjugated acceptor beads for the detection of Abeta total and Abeta 1-42 respectively. In the presence of Abeta total or Abeta 1-42, the beads come into close proximity. The excitation of the donor beads provokes the release of singlet oxygen molecules that trigger a cascade of energy transfer in the acceptor beads, resulting in light emission. Light emission is measured after 1 hour incubation (excitation at […] and emission at 615 nm).
(§3) A best-fit curve is fitted by a minimum sum of squares method to the plot of % Controlmin versus compound concentration.

The test system of experiment [2] is Abeta total produced and secreted by SKNBE2 cells (BACE1). The experiment is described as follows: BACE1 cellular αLisa assay in SKNBE2 cells, Abeta total. The class given is cell-based, human. Conditions: Homo sapiens, SKNBE2, 18 h, SKNBE2 cells expressing hAPP695, 18 hours incubation; read-out: Cellular αLisa assay in SKNBE2 cells Abetatotal pIC50 (converted). How it is done:
as §1, §2, §3

Another experiment deals with T2, BACE2 (Homo sapiens, UniProt Q9Y5Z0).
T2 construct: recombinant BACE2 protein in a final concentration of 0.4 μg/ml
T2 sequence (Q9Y5Z0 63-518): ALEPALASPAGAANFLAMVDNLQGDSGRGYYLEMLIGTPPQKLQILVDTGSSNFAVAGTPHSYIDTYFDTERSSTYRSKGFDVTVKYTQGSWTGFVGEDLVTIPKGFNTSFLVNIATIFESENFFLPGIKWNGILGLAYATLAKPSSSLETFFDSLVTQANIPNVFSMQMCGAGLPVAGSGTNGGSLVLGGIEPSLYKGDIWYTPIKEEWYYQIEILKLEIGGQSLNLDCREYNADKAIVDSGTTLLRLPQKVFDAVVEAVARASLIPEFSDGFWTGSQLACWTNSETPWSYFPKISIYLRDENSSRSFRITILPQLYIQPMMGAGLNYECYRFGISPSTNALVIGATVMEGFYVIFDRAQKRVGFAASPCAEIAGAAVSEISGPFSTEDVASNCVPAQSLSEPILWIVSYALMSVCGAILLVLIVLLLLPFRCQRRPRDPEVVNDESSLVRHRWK
The experiment can be described thus: BACE2 biochemical FRET based assay. As to conditions: recombinant BACE2, 450 min, pH 5.0; read-out: BACE2 Biochemical FRET based assay pIC50 (converted).

Experiment [3] has as its system brain levels of soluble Aβ42, Aβ40. The experiment can be described thus: In vivo Aβ lowering, brain levels of soluble Aβ by MSD electrochemiluminescence. More on the design: species or system mouse. Conditions: 4 h after administration, untreated control set at 100. The text has this: To determine whether acute administration of an Aβ lowering agent would reduce Aβ levels in vivo, non-transgenic rodents, e.g. mice or rats were used. Animals treated with the Aβ lowering agent were examined and compared to those untreated or treated with vehicle and brain levels of soluble Aβ42, Aβ40, Aβ38, and Aβ37 were quantitated by Meso Scale Discovery's (MSD) electrochemiluminescence detection technology. Treatment periods varied from hours (h) to days and were adjusted based on the results of the Aβ lowering once a time course of onset of effect could be established.
A typical protocol for measuring Aβ lowering in vivo is shown but it is only one of many variations that could be used to optimize the levels of detectable Aβ. For example, Aβ lowering compounds were formulated in 20% of Captisol® (a sulfo-butyl ether of β-cyclodextrin) in water or 20% hydroxypropyl 3 cyclodextrin. The Aβ lowering agents were administered as a single oral dose or by any acceptable route of administration to overnight fasted animals. After 4 h, the animals were sacrificed and Aβ levels were analysed.
Blood was collected by decapitation and exsanguinations in EDTA-treated collection tubes. Blood was centrifuged at 1900 g for 10 minutes (min) at 4° C. and the plasma recovered and flash frozen for later analysis. The brain was removed from the cranium and hindbrain. The cerebellum was removed and the left and right hemisphere were separated. The left hemisphere was stored at −18° C. for quantitative analysis of test compound levels. The right hemisphere was rinsed with phosphate-buffered saline (PBS) buffer and immediately frozen on dry ice and stored at −80° C. until homogenization for biochemical assays.
Mouse brains from non-transgenic animals were resuspended in 8 volumes of 0.4% DEA (diethylamine)/50 mM NaCl containing protease inhibitors (Roche-11873580001 or 04693159001) per gram of tissue, e.g. for 0.158 g brain, add 1.264 ml of 0.4% DEA. All samples were homogenized in the FastPrep-24 system (MP Biomedicals) using lysing matrix D (MPBio #6913-100) at 6 m/s for 20 seconds. […] Nine parts of supernatant were neutralized with 1 part 0.5 M Tris-HCl pH 6.8 and used to quantify Aβ.
To quantify the amount of Aβ42, Aβ40, Aβ38, and Aβ37 in the soluble fraction of the brain homogenates, simultaneous specific detection of Aβ42, Aβ40, Aβ38, and Aβ37 was performed using MSD's electro-chemiluminescence multiplex detection technology. […] Following this incubation and subsequent wash steps the assay was finished by adding read buffer according to the manufacturer's instructions (Meso Scale Discovery, Gaithersburg, Md.).
The SULFO-TAG emits light upon electrochemical stimulation initiated at the electrode. MSD Sector instrument SI6000 was used for signal read-out. […]

T1 sequence (P56817 46-501): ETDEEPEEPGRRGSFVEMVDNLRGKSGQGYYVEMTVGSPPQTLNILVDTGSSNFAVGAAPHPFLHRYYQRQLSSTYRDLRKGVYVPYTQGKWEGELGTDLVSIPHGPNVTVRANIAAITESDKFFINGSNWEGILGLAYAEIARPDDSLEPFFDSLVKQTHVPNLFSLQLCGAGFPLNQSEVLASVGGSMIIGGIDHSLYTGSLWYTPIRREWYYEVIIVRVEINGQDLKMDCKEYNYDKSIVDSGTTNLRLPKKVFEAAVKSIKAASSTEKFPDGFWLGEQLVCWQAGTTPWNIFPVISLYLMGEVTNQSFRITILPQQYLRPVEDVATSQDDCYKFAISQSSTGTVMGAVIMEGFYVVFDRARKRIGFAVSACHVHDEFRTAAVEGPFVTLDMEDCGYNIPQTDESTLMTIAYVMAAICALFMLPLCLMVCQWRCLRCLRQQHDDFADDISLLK

`Cc1nc(C(=O)Nc2ccc(F)c([C@]3(C)Cn4cncc4C(N)=N3)c2)co1` [Compound 4, N-{3-[(6R)-8-Amino-6-methyl-5,6-dihydroimidazo[1,5-a]pyrazin-6-yl]-4-fluorophenyl}-2-methyl-1,3-oxazole-4-carboxamide]: the IC50 was 11.7 nM at BACE1, 26.3 nM in experiment [1], 24 nM in experiment [2] and 6.46 nM at BACE2. In addition, in experiment [3] (dose 10, p.o.), the “Aβ40 (% vs Ctrl)_Mean” value is on record as 111 % vs Ctrl. Further, the “Aβ42 (% vs Ctrl)_Mean” value in experiment [3] (dose 10, p.o.) stood at 108 % vs Ctrl.

For the molecule `C[C@@]1(c2cc(NC(=O)c3ccc(C#N)cn3)ccc2F)Cn2cncc2C(N)=N1` [Compound 5, N-{3-[(6R)-8-Amino-6-methyl-5,6-dihydroimidazo[1,5-a]pyrazin-6-yl]-4-fluorophenyl}-5-cyanopyridine-2-carboxamide], the IC50 in experiment [1] is 5.25 nM. The IC50 in experiment [2] was 4.79 nM. Besides, in experiment [3] (dose 10, s.c.), the “Aβ40 (% vs Ctrl)_Mean” value is given as 108 % vs Ctrl and the “Aβ42 (% vs Ctrl)_Mean” value was 100 % vs Ctrl.
